Here are results for 7 compounds from patent US7427623B2, “4-Amino-2,3-disubstituted thieno[2,3-d]pyrimidines and pharmacetical compositions thereof” (SmithKline Beecham Corporation, priority 2001, dated 2008).

For assay [1], the target named is T1, GST-VEGFR2 (Homo sapiens, UniProt P35968).
T1 construct: GST-VEGFR2, baculovirus expressed recombinant constructs of the intracellular domains of human TIE2 tagged by GST; made in house
Description: VEGF-R2 Enzyme Assay (VEGF-E), LANCE method. The class given is biochemical. The note with it: GST-VEGFR2, 75 uM ATP; read-out: VEGF-E pIC50 (converted). Here is the method:
VEGF-R2 Enzyme Assay (VEGF-E)
The VEGF enzyme assay used the LANCE method (Wallac) and GST-VEGFR2, baculovirus expressed recombinant constructs of the intracellular domains of human […] tagged by GST. […] The reaction was stopped by the addition of EDTA (final concentration 50 mM). […] The APC signal was measured using an ARVO multilabel counter (Wallac Berthold, Japan). The percent inhibition of activity was calculated relative to blank control wells. […] The IC50 values were converted to pIC50 values, i.e., −log IC50 in Molar concentration.
On the technique in general: Time-resolved FRET reads energy transfer from a long-lived donor to a nearby acceptor.

Assay [2] has as its target T2, GST-TIE2 (intracellular domains of human TIE2) (Homo sapiens, UniProt Q02763).
T2 construct: made in house
The assay is described as follows: TIE-2 Enzyme assay (TIE2-E), LANCE method. The assay is classed as biochemical. The note with it: GST-TIE2, 80 uM ATP, D1–15 peptide; read-out: TIE2-E pIC50 (converted). Here is the method:
TIE-2 Enzyme assay (TIE2-E)
Preactivated GST-TIE2 was incubated for 30 mins at room temperature in 96 well plates with 1 uM D1–15 peptide, 80 uM ATP, 10 mM MgCl2, 0.1 mg/ml BSA and the test compound (diluted from a 10 mM stock in DMSO, final DMSO concentration was 2.4%) in 1 mM HEPES (pH 7.4). The reaction was stopped by the addition of EDTA (final concentration 45 mM). Streptavidin linked-APC (allophycocyanin, Molecular Probe) and Europium-labeled anti-phosphorylated tyrosine antibody (Wallac) were then added at the final concentration of 17 ug/well and 2.1 ug/well, respectively. The APC signal was measured using an ARVO multilabel counter. (Wallac Berthold Japan). The percent inhibition of activity was calculated relative to blank control wells. […] The IC50 values were converted to pIC50 values, i.e., −log IC50 in Molar concentration.

For assay [3], the target named is T3, TIE2 intracellular domain/c-fms extracellular domain (TIE2/c-fms) chimeric protein (Homo sapiens, UniProt Q02763).
T3 construct: TIE2 intracellular domain/c-fms extracellular domain (TIE2/c-fms) chimeric protein; expressed in transfected cells; host or cells: mouse 3T3 cells
Description: TIE-2 Autophosphorylation Assay (TIE2-C), ELISA. The assay is classed as cell-based. The note with it: TIE2/c-fms expressing mouse 3T3 cells, MCSF activation, read-out: TIE2-C pIC50 (converted). How it is done:
TIE-2 Autophosphorylation Assay (TIE2-C)
The TIE-2 autophosphorylation assay used an ELISA method and a TIE2 intracellular domain/c-fms extracellular domain (TIE2/c-fms) chimeric protein expressing mouse 3T3 cells. This assay measured the autophosphorylation level of TIE2 protein expressed in cells. The cells were cultured in high glucose DMEM (Sigma) containing 10% serum at 37° C. in a humidified 10% CO2, 90% air incubator. The test compound (diluted from a 10 mM stock in DMSO, final DMSO concentration was 0.1%) was incubated with TIE2/c-fms expressing cells for 1 hr in serum free DMEM in 96 well plates followed by the activation of TIE2/c-fms receptor using c-fms ligand, MCSF (macrophage colony stimulating factor). […] The cell extracts were transferred into Rat anti-c-fms antibody coated 96 well plates and incubated for 12 hrs at 4 degrees. The extracts were removed by aspiration and the plate was incubated with biotinylated anti-phosphotyrosine antibody, PT66 (Sigma) and then with HRP (Horseradish Peroxidase)-labeled streptavidin (PIERCE). The optical density at 450 nm derived from HRP catalyzed TMB was measured with an ARVO multilabel counter. (Wallac Berthold Japan). The percent inhibition of activity was calculated relative to blank control wells. […] The IC50 values were converted to pIC50 values, i.e., −log IC50 in Molar concentration.

Assay [4] concerns Human umbilical cord endothelial cells (HUVEC). Description: VEGF-Driven Cellular Proliferation Assay, BrdU Incorporation Assay (VEGF-C). Conditions: Homo sapiens, read-out: VEGF-C pIC50 (converted). The assay is classed as cell-based. How it is done:
VEGF-Driven Cellular Proliferation Assay. BrdU Incorporation Assay (VEGF-C)
Human umbilical cord endothelial cells (HUVEC, Clonetics, CC2519) were passaged in Type I collagen-coated 100-mm petridishes in EGM-MV medium (Clonetics, CC3125) at 37 C in a humidified 5% CO2, 95% air incubator. […] After incubation overnight at 37° C., the media were replaced with 100 ul of M199 serum-free medium containing compounds at various concentrations with 0.6% DMSO and gentamicin. The compounds were diluted in serum-free M199 medium from 10 mM stock solutions prepared in 100% DMS0. […] The cells were pulsed with bromodeoxyuridine (BrdU at 10 uM in serum-free M199) at 37° C. for an additional 24 h. […] The optical density at 450 nm was measured with a multilabel counter (ARVO SX, Wallac). The percent inhibition of cell growth was calculated relative to blank control wells. […] The IC50 values were converted to pIC50 values, i.e., −log IC50 in Molar concentration.

The target in assay [5] is T4, Recombinant GST-Tie2 (Homo sapiens, UniProt Q02763).
T4 construct: GST
Description: Tie2 Fluorescence Polarization Kinase Activity Assay (TIE2-FP). Conditions: 200 μM ATP, activated Tie2, fluorescence polarization. The class given is biochemical. A general note: In fluorescence polarisation assays a small probe gives low polarisation when free and higher when bound to something large.
Description: Tie2 Fluorescence Polarization Kinase Activity Assay: (TIE2-FP)
Activation of Recombinant Tie2 Activation:
Recombinant GST-Tie2 was activated by incubating the enzyme in 20 mM Tris-HCl, pH 7.5, 12 mM MgCl2, 100 mM NaCl, 20 μM sodium vanidate, 1 mM DTT and 300 μM ATP at room temperature for 2 hours. […] The activated enzyme was stored as aliquots at −80° C. in 20 mM Tris-HCl, pH 7.5 and 11 mM NaCl.
The final assay conditions were 50 mM HEPES, pH 7.5, 5% DMSO (when screening compounds), 200 μM ATP, 5 mM MgCl2, 1 mM DTT, 50 μM sodium vanidate, 1 nM activated enzyme, and 200 μM peptide. […] Panvera Anti-phosphotyrosine antibody (Cat#P2840) and PTK Green Tracer (Cat#P2842) were used to detect the phosphorylated peptide. […] IC50's were then determined from the % polarization using normal calculation methods.

T3 sequence (Q02763 770-1124 limits assumed, change not shown): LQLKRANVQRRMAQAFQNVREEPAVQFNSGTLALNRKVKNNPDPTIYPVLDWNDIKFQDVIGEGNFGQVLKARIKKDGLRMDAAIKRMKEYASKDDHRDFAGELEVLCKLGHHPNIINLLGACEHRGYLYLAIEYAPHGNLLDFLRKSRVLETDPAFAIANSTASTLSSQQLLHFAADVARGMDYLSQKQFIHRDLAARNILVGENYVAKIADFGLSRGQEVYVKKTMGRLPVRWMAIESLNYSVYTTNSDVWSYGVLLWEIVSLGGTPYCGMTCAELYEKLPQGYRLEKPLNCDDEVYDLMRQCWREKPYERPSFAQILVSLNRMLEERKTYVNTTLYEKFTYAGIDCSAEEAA
T3 sequence (P07333 20-517 partner limits assumed): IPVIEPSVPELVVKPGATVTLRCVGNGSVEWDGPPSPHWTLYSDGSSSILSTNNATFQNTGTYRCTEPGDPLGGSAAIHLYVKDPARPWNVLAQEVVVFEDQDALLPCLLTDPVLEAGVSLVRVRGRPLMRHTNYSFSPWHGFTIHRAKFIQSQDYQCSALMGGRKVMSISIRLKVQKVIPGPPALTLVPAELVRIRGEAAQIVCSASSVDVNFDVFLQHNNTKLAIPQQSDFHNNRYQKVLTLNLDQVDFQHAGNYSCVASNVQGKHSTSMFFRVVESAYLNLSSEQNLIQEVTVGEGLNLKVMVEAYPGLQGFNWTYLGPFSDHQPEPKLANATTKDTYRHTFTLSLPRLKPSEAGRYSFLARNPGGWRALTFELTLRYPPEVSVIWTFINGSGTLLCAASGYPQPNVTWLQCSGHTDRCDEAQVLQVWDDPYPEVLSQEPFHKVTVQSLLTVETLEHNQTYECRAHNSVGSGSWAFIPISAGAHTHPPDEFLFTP
T3 sequence (P09603 33-190 partner limits assumed): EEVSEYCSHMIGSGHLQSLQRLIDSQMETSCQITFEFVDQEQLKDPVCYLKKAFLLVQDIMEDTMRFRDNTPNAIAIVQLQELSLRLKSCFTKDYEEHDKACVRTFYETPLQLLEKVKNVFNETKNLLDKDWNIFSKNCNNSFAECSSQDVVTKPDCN
T1 sequence (P35968 786-1356 limits assumed): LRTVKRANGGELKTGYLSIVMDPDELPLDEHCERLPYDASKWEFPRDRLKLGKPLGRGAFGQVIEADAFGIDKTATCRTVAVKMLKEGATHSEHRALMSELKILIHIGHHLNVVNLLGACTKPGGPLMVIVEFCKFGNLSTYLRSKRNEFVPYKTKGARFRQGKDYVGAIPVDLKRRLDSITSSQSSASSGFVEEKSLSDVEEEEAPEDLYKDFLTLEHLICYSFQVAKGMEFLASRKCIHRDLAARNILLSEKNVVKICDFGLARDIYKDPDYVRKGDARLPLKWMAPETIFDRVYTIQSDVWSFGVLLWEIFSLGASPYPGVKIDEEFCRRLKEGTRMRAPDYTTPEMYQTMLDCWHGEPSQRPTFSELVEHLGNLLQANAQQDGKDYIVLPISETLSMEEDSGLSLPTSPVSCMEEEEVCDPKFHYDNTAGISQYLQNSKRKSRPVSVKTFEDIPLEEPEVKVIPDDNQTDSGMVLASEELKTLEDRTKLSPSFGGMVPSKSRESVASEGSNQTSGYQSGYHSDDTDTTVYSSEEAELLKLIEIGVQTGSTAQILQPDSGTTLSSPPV
T2 sequence (Q02763 762-1104): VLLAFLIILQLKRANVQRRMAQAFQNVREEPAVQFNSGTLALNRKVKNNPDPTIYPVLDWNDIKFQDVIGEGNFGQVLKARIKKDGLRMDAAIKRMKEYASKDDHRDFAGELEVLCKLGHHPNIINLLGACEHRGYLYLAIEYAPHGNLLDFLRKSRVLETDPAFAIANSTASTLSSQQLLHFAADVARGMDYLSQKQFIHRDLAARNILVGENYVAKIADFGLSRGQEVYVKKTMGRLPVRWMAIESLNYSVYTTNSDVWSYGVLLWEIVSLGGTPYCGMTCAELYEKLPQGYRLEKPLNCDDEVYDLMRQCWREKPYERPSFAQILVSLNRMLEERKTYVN
T4 sequence (Q02763 23-1124): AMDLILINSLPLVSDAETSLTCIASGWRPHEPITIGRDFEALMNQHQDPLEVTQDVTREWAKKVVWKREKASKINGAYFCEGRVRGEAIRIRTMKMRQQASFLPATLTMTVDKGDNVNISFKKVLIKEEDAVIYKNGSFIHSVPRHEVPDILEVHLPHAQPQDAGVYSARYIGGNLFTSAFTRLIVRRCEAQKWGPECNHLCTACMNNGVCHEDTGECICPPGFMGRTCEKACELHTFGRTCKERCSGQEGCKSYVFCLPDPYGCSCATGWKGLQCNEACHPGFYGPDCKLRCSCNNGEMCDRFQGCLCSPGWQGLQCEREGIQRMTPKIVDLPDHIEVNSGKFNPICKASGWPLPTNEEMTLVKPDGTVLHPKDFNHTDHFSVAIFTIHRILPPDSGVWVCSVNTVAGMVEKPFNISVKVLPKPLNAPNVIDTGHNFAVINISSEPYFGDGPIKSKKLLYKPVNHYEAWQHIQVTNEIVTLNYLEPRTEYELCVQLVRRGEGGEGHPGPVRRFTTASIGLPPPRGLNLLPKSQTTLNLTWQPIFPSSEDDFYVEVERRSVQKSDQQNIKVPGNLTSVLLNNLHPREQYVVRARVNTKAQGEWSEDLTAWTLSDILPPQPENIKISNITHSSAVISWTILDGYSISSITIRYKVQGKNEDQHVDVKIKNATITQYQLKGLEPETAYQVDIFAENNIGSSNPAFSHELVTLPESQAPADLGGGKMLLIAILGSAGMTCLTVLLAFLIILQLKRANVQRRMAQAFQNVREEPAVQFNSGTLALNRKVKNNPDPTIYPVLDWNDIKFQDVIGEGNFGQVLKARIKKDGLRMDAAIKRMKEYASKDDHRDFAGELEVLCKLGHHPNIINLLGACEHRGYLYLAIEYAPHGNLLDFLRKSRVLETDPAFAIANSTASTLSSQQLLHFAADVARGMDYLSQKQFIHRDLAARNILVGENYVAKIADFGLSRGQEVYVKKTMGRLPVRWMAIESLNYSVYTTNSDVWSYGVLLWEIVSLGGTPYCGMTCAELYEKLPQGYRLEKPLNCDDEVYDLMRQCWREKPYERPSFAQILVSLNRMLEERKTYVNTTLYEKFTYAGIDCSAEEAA

For `CN(C)CCNC(=O)Nc1cccc(-c2oc3ncnc(N)c3c2-c2ccc(-c3ccccc3)cc2)c1` [Example 159, 4-Amino-3-(4-biphenyl)-2-((3-(2-(dimethylamino)ethyl)-aminocarbonylamino)phenyl)furo-[2,3-d]pyrimidine], the IC50 in assay [1], in assay [2], in assay [3] and in assay [4] was 100 to 1000 nM in each case.
Regarding `Nc1ncnc2oc(-c3cccc(S(N)(=O)=O)c3)c(-c3ccc(-c4ccccc4)cc3)c12` [Example 166, 4-Amino-3-(4-biphenyl)-2-(3-sulfamoylphenyl)furo[2,3-d]pyrimidine], the IC50 in assay [1] was less than 100 nM; in assay [2] it was 100 to 1000 nM; in assay [3], 100 to 1000 nM; in assay [4], 1000 to 10000 nM.
In the case of `NC(=O)Nc1cccc(-c2oc3ncnc(N)c3c2-c2ccc(-c3ccccc3)cc2)c1` [Example 184, 4-Amino-2-(3-(aminocarbonylamino)phenyl)-3-(4-biphenyl)furo[2,3-d]pyrimidine], the IC50 is less than 100 nM in assay [1], 100 to 1000 nM in assay [2], 100 to 1000 nM in assay [3] and 1000 to 10000 nM in assay [4].
As for `COc1ccc(-c2oc3ncnc(N)c3c2-c2ccc(-c3ccccc3)cc2)cc1NS(C)(=O)=O` [Example 189, 4-Amino-3-(4-biphenyl)-2-(4-methoxy-3-(methylsulfonylamino)phenyl)furo[2,3-d]pyrimidine], the IC50 in assay [1] was less than 100 nM; in assay [2], 100 to 1000 nM; in assay [3], 100 to 1000 nM; in assay [4], 1000 to 10000 nM.
Consider `NC(=O)Nc1ccc(-c2oc3ncnc(N)c3c2-c2ccc(-c3ccccc3)cc2)cc1` [Example 192, 4-Amino-3-(4-biphenyl)-2-(4-(aminocarbonylamino)phenyl)furo[2,3-d]pyrimidine], for which the IC50 in assay [1] is less than 100 nM; in assay [2] it was 100 to 1000 nM; in assay [3] it was 100 to 1000 nM; in assay [4], 1000 to 10000 nM.
On to `CNS(=O)(=O)c1cccc(-c2oc3ncnc(N)c3c2-c2ccc(-c3ccccc3)cc2)c1` [Example 200, 4-Amino-3-(4-biphenyl)-2-(3-(N-methylsulfonyl)phenyl)furo[2,3-d]pyrimidine], for which the IC50 in assay [1] is less than 100 nM; in assay [2], 100 to 1000 nM; in assay [3] it was 100 to 1000 nM; in assay [4], 1000 to 10000 nM.
As to `Nc1ncnc2scc(-c3ccc(NC(=O)Nc4cc(C(F)(F)F)ccc4F)cc3)c12` [Example 276, 4-Amino-3-(4-((2-fluoro-5-(trifluoromethyl)phenyl)aminocarbonylamino)phenyl)thieno[2,3-d]pyrimidine], the IC50 in assay [5] was 1.8 nM.
